This note sets out measurements from article PMC11141866, “Pyrimidine depletion enhances targeted and immune therapy combinations in acute myeloid leukemia” (JCI Insight, 2024).

In test [1] the test system is primary AML samples. Description: Flow cytometry CD38 surface expression, primary AML samples. The note with it: 500nM. It counts as cell-based, human. On the procedure:
(§1) Cells were thawed in 50% FBS RPMI and then cultured in StemSpan (StemCell Technologies) media supplemented with human FLT3L, SCF, GM-CSF, G-CSF, IL-3, IL-6, TPO, and EPO cytokines for 7 days (LTC).
(§2) After 72 hours or 7 days of treatment of DHODHi, cells were collected and washed with PBS, blocked with human Fc block (BioLegend), and stained with antibodies for 30 minutes on ice. Antibodies were washed off and cells resuspended in FACS buffer (2% FBS, 2 mM NaN3, Dulbecco’s PBS) for analysis using BD LSRFortessa or Cytek Aurora spectral flow cytometer. Live/dead exclusion was done using LIVE/DEAD Fixable Near-IR (Invitrogen). All antibodies were purchased from BioLegend except CD47, which was purchased from BD Biosciences: CD11b clone M1/70, CD38 clone HIT2, CD14 clone M5E2, CD47 clone B6H12, CD33 clone WM53, CD3 clone UCHT1, CD19 clone HIB19, and CD45 clone HI30.
On the technique in general: Flow cytometry measures light scatter and fluorescence of single cells or particles in a stream.

In test [2] the test system is U937. Description: MTS proliferation assay, U937. The settings on record: Homo sapiens, U-937, 96 h, read-out: IC50 (MTS proliferation). It counts as cell-based. On the procedure:
(§3) A total of 10,000–20,000 cells from different AML lines or 50,000–75,000 cells of primary AML blasts were treated in a 96-well plate for 72 hours or 96 hours at 37°C, 5% CO2. CellTiter 96 Aqueous MTS reagent (Promega) was added to cells followed by a 3-hour incubation at 37°C, 5% CO2. The absorbance was measured at 490 nm using DTX 880 plate reader, and the IC50 was calculated using GraphPad Prism.
(Tetrazolium assays rely on reduction of a dye to a coloured formazan, in cell work by metabolically active cells.)

The test system of test [3] is OCI-AML3. Nature of the test: MTS proliferation assay, OCI-AML3. It is filed as cell-based. The note with it: Homo sapiens, OCI-AML-3, 96 h, read-out: IC50 (MTS proliferation). The method, then:
as §3

For test [4], the system named is primary AML patient samples. Description: Flow cytometry viability, primary AML long-term culture. It is filed as cell-based, human. The note with it: 500nM. On the procedure: as §1, §2
Supplemental Figure S.2. […] A).
Flow cytometry analysis of viable primary AML patient samples (n=10) treated in vitro for seven days
(long term culture, LTC). […]

For test [5], the system named is MOLM-13. Description: MTS proliferation assay, MOLM-13. It is filed as cell-based. The note with it: Homo sapiens, MOLM-13, 96 h, read-out: IC50 (MTS proliferation). On the procedure: as §3
For test [6], the system named is primary AML patient samples. Description: Flow cytometry CD47 surface expression, primary AML samples. It is filed as cell-based, human. The note with it: 500nM. The method, then: as §1, §2
Supplemental Figure S.8. DHODHi modulates CD47 surface antigen expression. A) Representative flow cytometry overlay histogram plot for CD47 surface expression in MV4-11 cell line following a 72- […]
supplementation (experiment was done five independent times). B) Flow cytometry analysis of CD47 surface expression in primary AML patient samples (n=8-10) treated in vitro for seven days (long term culture, LTC). Data is shown as mean florescent intensity (MFI) of CD47 gated on live CD45+CD3-CD19- cells, error bars indicate mean with 95% confidence interval. C) Representative flow cytometry […]
modulation of CD47 post DHODHi treatment.
(1 picture or pasted object on this page, not shown here)

For test [7], the system named is THP1. Description: MTS proliferation assay, THP1. The note with it: Homo sapiens, THP-1, 96 h, read-out: IC50 (MTS proliferation). It is filed as cell-based. On the procedure: as §3
Test [8] relates to Kasumi. Nature of the test: MTS proliferation assay, Kasumi. It is filed as cell-based. The note with it: Homo sapiens, 96 h, read-out: IC50 (MTS proliferation). On the procedure:
as §3

Test [9] concerns HL-60 disseminated CDX model. Nature of the test: HL-60 CDX synergy with decitabine. It counts as in vivo, NCG mice. The settings on record: Decitabine 0.4 mpk IP (4on/10off), HOSU53 10 mpk p.o. qd, or both; flag 0 = censored at day 82. On the procedure:
Female 8- to 12-week-old female NCG mice were engrafted with 1 × 10^7 cells via tail vein i.v. injection. At 14 days after engraftment (day 1 of treatment), mice (n = 10/arm) were randomized to receive p.o. qd and i.p. vehicle (p.o. qd 40% HPβCD and 4 on/10 off i.p. PBS), 10 mg/kg HOSU-53, i.p. 0.4 mg/kg decitabine on a 4-day on/10-day off cycle, or their combination till moribundity or end of study day 82.

The structures appear in SMILES notation. pIC50: −log10 of the molar value. Values joined by “and” are separate entries in the source; they are usually repeats but may differ in a detail not shown here. Identical values can stand only once.

With `Cc1c(-c2ccc(-c3ccccc3F)cc2)nc2ccc(F)cc2c1C(=O)O` [BRQ, brequinar], the “CD38 MFI” value in test [1] (Pt.13, DMSO 803.93) turned out to be 685.5; in [1] (Pt.14, DMSO 15.61), 20.07; in test [1] (Pt.15, DMSO 168), 776.17; in test [1] (Pt.16, DMSO 274.9), 196.87; in test [1] (Pt.17, DMSO 1637.55), 2098.18; in test [1] (Pt.18, DMSO 74.26) it was 85.41. Also, the “CD38 MFI” value in test [1] (Pt.19, DMSO 997.1) turned out to be 1760; in [1] (Pt.20, DMSO 193.57) it was 223.42. In addition, the pIC50 is 5.70 in test [2]; 6.32 in [3]; 6.42 in test [5]; 6.05 in test [7]; 5.93 in [8]. The “% Live (Near-IR negative)” value amounted to 74.35% in [4] (Pt.13, DMSO 72.92); 69.22% in test [4] (Pt.14, DMSO 68.39); 34.7% in test [4] (Pt.15, DMSO 61.7); 44.41% in test [4] (Pt.16, DMSO 45.99); 27.99% in test [4] (Pt.17, DMSO 29.84); 24.94% in test [4] (Pt.18, DMSO 29.72). The “% Live (Near-IR negative)” value in [4] (Pt.19, DMSO 75.66) is on record as 72.29%; in test [4] (Pt.20, DMSO 67.67) it was 44.18%. The “CD47 MFI” value came to 1311.31 in [6] (Pt.13, DMSO 1665.27); 845.1 in test [6] (Pt.14, DMSO 585.79); 847.29 in [6] (Pt.15, DMSO 1002.16); 1999.15 in test [6] (Pt.16, DMSO 1349.33); 370.44 in test [6] (Pt.17, DMSO 334.61); 1024.38 in test [6] (Pt.18, DMSO 869.17). Further, the “CD47 MFI” value in test [6] (Pt.19, DMSO 364.4) is given as 470.75; in test [6] (Pt.20, DMSO 398.54) it was 499.32.
With `Nc1ncn([C@H]2C[C@H](O)[C@@H](CO)O2)c(=O)n1` [Decitabine, decitabine, reference compound], the “Survival, day of study at event (per animal)” value in test [9] was 40 days and 41 days and 43 days and 45 days and 47 days.
